Measured values taken from PubChem BioAssay (NCI).
Values joined by “and” are separate entries in the source; they are usually repeats but may differ in a detail not shown here. Equal entries are not always repeated.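 How tested: cells in 96-well plates exposed to compound for 48 hours at five concentrations. GI50: concentration for 50% inhibition of growth. TGI: concentration producing complete growth inhibition.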

Tests used:
Test in all cases: DTP human tumour cell line panel, 48 h
[1] = tested on: DMS 273 small cell lung
[2] = tested on: NCI-H23 lung
[3] = tested on: HCC-2998 colon
[4] = tested on: M14 melanoma
[5] = tested on: U251 CNS
[6] = tested on: SF-539 CNS
[7] = tested on: LXFL 529 NSCLC
[8] = tested on: SN12C renal
[9] = tested on: T-47D breast
[10] = tested on: MDA-MB-435

| SMILES | TGI [1] | TGI [2] | TGI [3] | TGI [4] | TGI [5] | TGI [6] | TGI [7] | TGI [8] [µM] | TGI [9] [µM] | TGI [10] [µM] | GI50 [1] [µM] | GI50 [2] [µM] | GI50 [3] [µM] | GI50 [4] [µM] | GI50 [5] [µM] | GI50 [6] [µM] | GI50 [7] [µM] | GI50 [8] [µM] | GI50 [9] [µM] | GI50 [10] [µM] |
| --- | --- | --- | --- | --- | --- | --- | --- | --- | --- | --- | --- | --- | --- | --- | --- | --- | --- | --- | --- | --- |
| CNC(=S)OCCC(C)CCCC(C)C (stereo not drawn) | 30.7 µM | 36.6 µM | 32.2 µM | 35.2 µM | 30.1 µM | 30.6 µM | 30.4 µM | 30.3 |  |  |  |  |  |  |  |  |  |  |  |  |
| CCOC(=O)CCC1(C(=O)OCC)CCCCC1=O (stereo not drawn) | > 100 µM | > 100 µM | > 100 µM |  | > 100 µM | > 100 µM | > 100 µM |  |  |  |  |  |  |  |  |  |  |  |  |  |
| O=C(CCc1nc(=S)[nH][nH]1)Nc1cc(Cl)c(Cl)cc1Cl | > 100 µM | > 100 µM | > 100 µM | > 100 µM | > 100 µM | > 100 µM | > 100 µM | > 100 |  |  |  |  |  |  |  |  |  |  |  |  |
| CN(C)N=Nc1ccc(C(N)=O)cc1 | > 100 µM | > 100 µM | > 100 µM | > 100 µM | > 100 µM | > 100 µM | > 100 µM | > 100 |  |  |  |  |  |  |  |  |  |  |  |  |
| Nc1ccccc1S(=O)(=O)N(CC(=O)O)c1ccccc1 | > 100 µM | > 100 µM |  | > 100 µM | > 100 µM | > 100 µM | > 100 µM | > 100 |  |  |  |  |  |  |  |  |  |  |  |  |
| NC(=O)NO.O.O.O.O.O.O.O.O.O.O.O.[Ge].[Ge].[Ge].[Ge].[Ge].[O]=[Ge].[O]=[Ge].[O]=[Ge].[O]=[Ge].[O]=[Ge][OH] | > 100 µM | > 100 µM | > 100 µM | > 89 µM | 69.9 µM | > 100 µM | > 100 µM | > 100 |  |  |  |  |  |  |  |  |  |  |  |  |
| Cc1cnc(NCCCN(C)C)c2c1[nH]c1ccc3cc(O)ccc3c12 | 1.24 µM | 2.04 µM | 1.98 µM | 2.55 µM | 1.02 µM | 1.64 µM | 1.76 µM | 1.78 | 2.78 | 2.3 |  |  |  |  |  |  |  |  |  |  |
| COC(=O)C1(C(C)C)CCc2c(OC)ccc(OC)c2C1=O (stereo not drawn) |  |  | > 100 µM | > 100 µM | > 100 µM | > 100 µM | > 100 µM | > 100 |  |  |  |  |  |  |  |  |  |  |  |  |
| CCC[CH2][Sn]([CH2]CCC)([S]c1cccc2cccnc12)[S]c1cccc2cccnc12 | 0.432 µM | 0.422 µM | 0.3 µM | 0.339 µM | 0.409 µM | 0.617 µM | 0.163 µM | 0.822 |  |  | 0.177 | 0.161 | 0.144 | 0.175 | 0.197 | 0.234 | 0.039 | 0.24 |  |  |
| CC1(C(=O)O)CCC[C@@]2(C)C1CC[C@@]1(C)c3cocc3CCC21 (stereo partly drawn) | > 100 µM | > 100 µM | > 100 µM | > 100 µM | > 100 µM | > 100 µM | > 100 µM | > 100 |  |  |  |  |  |  |  |  |  |  |  |  |
| CCCCCCCCCCCCCC(=O)OC(/C=C/C(C)C)C(O)C(O)C(OC)C(=O)NC1CCCCN(C)C1=O (stereo not drawn) | 4.98 µM and > 49 µM | 6.48 µM and > 49 µM | 5.54 µM and > 49 µM | 6.09 µM and > 49 µM | 6.43 µM and > 49 µM | 7.18 µM and > 49 µM | 6.89 µM and > 49 µM |  |  |  | > 49 |  |  | > 49 |  |  | > 49 |  |  |  |
| C1=C2/CC[C@H](Sc3ccccc3)C2C2(CCCCC/1)OCCO2 (stereo partly drawn) | > 100 µM | 63.3 µM | 67.9 µM |  | > 100 µM | > 100 µM |  | > 100 |  |  |  |  |  |  |  |  |  |  |  |  |
| O=C(CCc1nc(=S)[nH][nH]1)Nc1ccc(Cl)c(Cl)c1 | > 100 µM | > 100 µM |  | > 100 µM | > 100 µM | > 100 µM | > 100 µM | > 100 |  |  |  |  |  |  |  |  |  |  |  |  |
| COc1cc2cc(OC)c3cc4c(cc3c2c(OC)c1OC)OCO4 | 35.6 µM | > 81.2 µM | 25.8 µM | > 62.1 µM | > 59.3 µM | > 55.4 µM | > 100 µM | > 100 |  |  |  |  |  |  |  |  |  |  |  |  |
| OCC1=CC(NC2CC(CO)C(O)C(O)C2O)C(O)C(O)C1O (stereo not drawn) | > 100 µM | > 100 µM |  | > 100 µM | > 100 µM | > 100 µM |  | > 100 |  |  |  |  |  |  |  |  |  |  |  |  |
| COC(=O)/C(C#N)=C1\NC(=O)c2ccccc21 | > 100 µM | > 100 µM | > 100 µM | > 100 µM | > 100 µM | > 100 µM | > 100 µM | > 100 |  |  |  |  |  |  |  |  |  |  |  |  |

| SMILES | TGI [1] | TGI [2] | TGI [3] | TGI [4] | TGI [5] | TGI [6] | TGI [7] | TGI [8] [µM] | TGI [9] [µM] | TGI [10] [µM] | GI50 [1] [µM] | GI50 [2] [µM] | GI50 [3] [µM] | GI50 [4] [µM] | GI50 [5] [µM] | GI50 [6] [µM] | GI50 [7] [µM] | GI50 [8] [µM] | GI50 [9] [µM] | GI50 [10] [µM] |
| --- | --- | --- | --- | --- | --- | --- | --- | --- | --- | --- | --- | --- | --- | --- | --- | --- | --- | --- | --- | --- |
| Cc1cc(NS(=O)(=O)c2ccc(Nc3c4ccccc4nc4c(C(=O)N5CCN(CCOS(C)(=O)=O)CC5)cccc34)cc2)no1 | > 100 µM | > 100 µM | > 100 µM | > 100 µM | > 100 µM | > 100 µM |  | > 100 |  |  |  |  |  |  |  |  |  |  |  |  |
| CNS(=O)(=O)NNS(=O)(=O)c1ccccc1 | > 100 µM | > 100 µM | > 100 µM | > 100 µM | > 100 µM | > 100 µM | > 100 µM | > 100 |  |  |  |  |  |  |  |  |  |  |  |  |
| O=C(Nc1nc2ccc([N+](=O)[O-])cc2s1)C(=O)C(C1OC(=O)c2ccccc21)[N+](=O)[O-] (stereo not drawn) |  | > 100 µM | > 100 µM | > 100 µM | > 100 µM | > 100 µM | > 100 µM | > 100 |  |  |  |  |  |  |  |  |  |  |  |  |
| Cc1ccc(S(=O)(=O)OC[C@@H]2CO2)cc1 | > 100 µM | > 100 µM | > 100 µM | > 100 µM |  | > 100 µM | > 100 µM | > 100 |  |  |  |  |  |  |  |  |  |  |  |  |
| COc1ccccc1N1C(=O)C2c3[nH]c4ccccc4c3C3CCC(C(C)(C)C)CC3C2C1=O (stereo not drawn) | > 100 µM | > 100 µM | > 100 µM | > 100 µM | > 100 µM | > 100 µM | > 100 µM | > 100 |  |  |  |  |  |  |  |  |  |  |  |  |
| O=C(Nc1ccccc1)c1c(O)[nH]c(=S)[nH]c1=O | 78.9 µM | 82.6 µM and > 250 µM | 120 µM and > 250 µM | 108 µM | 109 µM and > 250 µM | 87.1 µM and > 250 µM |  | 112 | 105 | 46.8 |  | 83.6 | 95.3 |  | 66.5 | 102 |  |  |  |  |
| COc1cc2ccnc([C@@H](OC(=O)c3ccccc3)c3ccc(OC)c(OC)c3OC)c2cc1OC |  | > 100 µM | > 100 µM | > 100 µM | > 100 µM | > 100 µM | > 100 µM | > 100 |  |  |  |  |  |  |  |  |  |  |  |  |
| CCn1c(C)nn2c(=O)c3ccccc3nc2c1=O | > 100 µM | > 100 µM | > 100 µM | > 100 µM | > 100 µM | > 100 µM | > 100 µM |  |  |  |  |  |  |  |  |  |  |  |  |  |
| CC1(C)C(=O)/C=C\C(=O)C(C)(C)C2=CC=C(O2)C(C)(C)C(=O)/C=C\C(=O)C(C)(C)C2=CC=C1O2 | > 100 µM | > 100 µM | > 100 µM |  | > 100 µM |  | > 100 µM | > 100 |  |  |  |  |  |  |  |  |  |  |  |  |
| CC(=O)[CH-]C(=O)c1ccccc1.CC(=O)[CH-]C(=O)c1ccccc1.CN(C)c1ccc([O-])cc1.CN(C)c1ccc([O-])cc1.Cl.[Ti+4] |  | > 31.6 µM | > 31.6 µM | > 31.6 µM | > 31.6 µM | > 31.6 µM | > 31.6 µM | > 31.6 |  |  |  | 21.1 | 20.7 | 17.5 | > 31.6 | 19 | 16 | 23.7 |  |  |
| Cc1c(C(=O)C/C(=N/NC(=O)c2ccccc2O)C(=O)Nc2ccccc2C(C)C)[n+](=O)c2ccccc2n1[O-] | > 100 µM | 52.8 µM | > 100 µM | > 100 µM | > 100 µM | > 100 µM | > 100 µM | > 100 |  |  |  |  |  |  |  |  |  |  |  |  |
| Cc1nc2c(ccc3ncccc32)[nH]1 | > 100 µM | > 100 µM | > 100 µM | > 100 µM | > 100 µM | > 100 µM | > 100 µM | > 100 |  |  |  |  |  |  |  |  |  |  |  |  |
| CCOC(=O)C(C)(C)Oc1ccc2c(-c3ccccc3)cc(=O)oc2c1 | > 100 µM | > 100 µM | > 100 µM | > 100 µM | > 100 µM | 86.5 µM | 94.8 µM | > 100 |  |  |  |  |  |  |  |  |  |  |  |  |
| O=C(O)CCC(NC(=O)c1ccc(Nc2nc3ccccc3nc2-c2cccs2)cc1)C(=O)O (stereo not drawn) | > 100 µM | > 100 µM | > 100 µM | > 100 µM | > 100 µM | > 100 µM | > 100 µM | > 100 |  |  |  |  |  |  |  |  |  |  |  |  |
| CN(C)c1ccc(/C=C\C2=[N+](C)c3ccccc3C2(C)C)cc1 |  | 23.7 µM | 12.9 µM | > 38.2 µM | 17.4 µM | 16.7 µM |  | 14.6 | > 33.2 | 9.35 |  | 0.299 | 1.22 | 1.91 | 0.233 | 1.12 |  | 0.351 | 0.634 | 0.422 |
| O=C(Nc1ccc(-n2ccc3c(NC(=O)c4ccccc4)nccc32)cc1)c1ccc(Cl)c(C(F)(F)F)c1 |  | > 32.9 µM | 10.4 µM | 10.7 µM | 5.3 µM | 14.4 µM |  | 18.3 | 20.4 | 6.52 |  | 7.16 | 1.6 | 1.92 | 0.095 | 0.273 |  | 2.25 | 6.2 | 0.674 |
